Data published in patent US9328099B2, “Cyanomethylpyrazole carboxamides as janus kinase inhibitors” (Merck Sharp & Dohme Corp., priority 2011, dated 2016).

Experiments:
JAK1 = JAK1 (Homo sapiens (Human), UniProt P23458); experiment: Jak Biochemical HTRF Assay, JAK1; settings: HTRF biochemical assay, GST-tagged catalytic domain; top concentration tested […]; read-out: JAK1 IC50
Text: (§1) Jak Biochemical HTRF Assay Protocol
(§2) Subsequent reagent additions employed an Agilent Bravo.

JAK2 = JAK2 (Homo sapiens (Human), UniProt O60674); experiment: Jak Biochemical HTRF Assay, JAK2; settings: HTRF biochemical assay, GST-tagged catalytic domain; top concentration tested […]
Sequence of JAK2 (O60674 849-1124): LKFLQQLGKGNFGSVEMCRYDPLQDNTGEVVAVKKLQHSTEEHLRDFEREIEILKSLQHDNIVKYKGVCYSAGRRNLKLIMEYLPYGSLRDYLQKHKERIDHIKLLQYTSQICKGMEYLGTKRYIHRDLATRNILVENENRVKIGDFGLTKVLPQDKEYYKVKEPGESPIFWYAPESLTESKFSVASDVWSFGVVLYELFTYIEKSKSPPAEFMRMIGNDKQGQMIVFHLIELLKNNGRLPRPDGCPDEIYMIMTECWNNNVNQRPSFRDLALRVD
Text: as §1, §2

Sequence of JAK1 (P23458 875-1153): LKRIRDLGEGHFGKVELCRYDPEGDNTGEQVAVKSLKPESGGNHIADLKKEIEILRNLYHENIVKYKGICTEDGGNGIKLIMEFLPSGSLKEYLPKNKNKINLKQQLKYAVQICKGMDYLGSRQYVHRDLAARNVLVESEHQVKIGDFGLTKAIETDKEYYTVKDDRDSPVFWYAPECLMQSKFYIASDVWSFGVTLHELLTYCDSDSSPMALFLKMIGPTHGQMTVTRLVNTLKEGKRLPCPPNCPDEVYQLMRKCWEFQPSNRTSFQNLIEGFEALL

| SMILES | IC50 (JAK1) | IC50 (JAK2) |
| --- | --- | --- |
| N#CCC1(n2cc(C(N)=O)c(Nc3ccc(F)cc3)n2)CCN(c2ccc(C(O)C(F)(F)F)cc2)CC1 (centres unmarked) [Example 3-9, 1-{4-(cyanomethyl)-1-[4-(2,2,2-trifluoro-1-hydroxyethyl)phenyl]piperidin-4-yl}-3-[(4-fluorophenyl)amino]-1H-pyrazole-4-carboxamide] | 1 nM | 37 nM |
| N#CCC1(n2cc(C(N)=O)c(Nc3ccc(F)cc3)n2)CCN(c2cccc(OCCO)n2)CC1 [Example 3-10, 1-{4-(cyanomethyl)-1-[6-(2-hydroxyethoxy)pyridin-2-yl]piperidin-4-yl}-3-[(4-fluorophenyl)amino]-1H-pyrazole-4-carboxamide] | 3 nM | 47 nM |
| COc1cc(N2CCC(CC#N)(n3cc(C(N)=O)c(Nc4ccc(F)cc4)n3)CC2)ccc1F [Example 3-11, 1-[4-(cyanomethyl)-1-(4-fluoro-3-methoxyphenyl)piperidin-4-yl]-3-[(4-fluorophenyl)amino]-1H-pyrazole-4-carboxamide] | 4 nM | 74 nM |
| COc1cc(F)cc(N2CCC(CC#N)(n3cc(C(N)=O)c(Nc4ccc(F)cc4)n3)CC2)c1 [Example 3-12, 1-[4-(cyanomethyl)-1-(3-fluoro-5-methoxyphenyl)piperidin-4-yl]-3-[(4-fluorophenyl)amino]-1H-pyrazole-4-carboxamide] | 2 nM | 40 nM |
| N#CCC1(n2cc(C(N)=O)c(Nc3ccc(F)cc3)n2)CCN(c2ccc(OC(F)F)nc2)CC1 [Example 3-13, 1-{4-(cyanomethyl)-1-[6-(difluoromethoxy)pyridin-3-yl]piperidin-4-yl}-3-[(4-fluorophenyl)amino]-1H-pyrazole-4-carboxamide] | 0.7 nM | 21 nM |
| CC(C)Oc1cccc(N2CCC(CC#N)(n3cc(C(N)=O)c(Nc4ccc(F)cc4)n3)CC2)n1 [Example 3-15, 1-{4-(cyanomethyl)-1-[6-(1-methylethoxy)pyridin-2-yl]piperidin-4-yl}-3-[(4-fluorophenyl)amino]-1H-pyrazole-4-carboxamide] | 191 nM | > 1500 nM |
| N#CCC1(n2cc(C(N)=O)c(Nc3ccc(F)cc3)n2)CCN(c2cccc(C3CC3)c2)CC1 [Example 3-17, 1-[4-(cyanomethyl)-1-(3-cyclopropylphenyl)piperidin-4-yl]-3-[(4-fluorophenyl)amino]-1H-pyrazole-4-carboxamide] | 32 nM | 780 nM |
| N#CCC1(n2cc(C(N)=O)c(Nc3ccc(F)cc3)n2)CCN(c2cccc(C#N)n2)CC1 [Example 3-18, 1-[4-(cyanomethyl)-1-(6-cyanopyridin-2-yl)piperidin-4-yl]-3-[(4-fluorophenyl)amino]-1H-pyrazole-4-carboxamide] | 3 nM | 89 nM |
| N#CCC1(n2cc(C(N)=O)c(Nc3ccc(F)cc3)n2)CCN(c2ccc(OC(F)F)cn2)CC1 [Example 3-19, 1-{4-(cyanomethyl)-1-[5-(difluoromethoxy)pyridin-2-yl]piperidin-4-yl}-3-[(4-fluorophenyl)amino]-1H-pyrazole-4-carboxamide] | 0.6 nM | 18 nM |
| N#CCC1(n2cc(C(N)=O)c(Nc3ccc(F)cc3)n2)CCN(c2cncc(C#N)c2)CC1 [Example 3-21, 1-[4-(cyanomethyl)-1-(5-cyanopyridin-3-yl)piperidin-4-yl]-3-[(4-fluorophenyl)amino]-1H-pyrazole-4-carboxamide] | 0.6 nM | 20 nM |
| COc1ncc(N2CCC(CC#N)(n3cc(C(N)=O)c(Nc4ccc(F)cc4)n3)CC2)cn1 [Example 3-25, 1-[4-(cyanomethyl)-1-(2-methoxypyrimidin-5-yl)piperidin-4-yl]-3-[(4-fluorophenyl)amino]-1H-pyrazole-4-carboxamide] | 0.7 nM | 21 nM |
| N#CCC1(n2cc(C(N)=O)c(Nc3ccc(F)cc3)n2)CCN(c2ccc(C#N)cc2)CC1 [Example 3-26, 1-[4-(cyanomethyl)-1-(4-cyanophenyl)piperidin-4-yl]-3-[(4-fluorophenyl)amino]-1H-pyrazole-4-carboxamide] | 0.2 nM | 3 nM |
| N#CCC1(n2cc(C(N)=O)c(Nc3ccc(F)cc3)n2)CCN(c2ccc(C(F)(F)F)nc2)CC1 [Example 3-28, 1-{4-(cyanomethyl)-1-[6-(trifluoromethyl)pyridin-3-yl]piperidin-4-yl}-3-[(4-fluorophenyl)amino]-1H-pyrazole-4-carboxamide] | 0.6 nM | 26 nM |
| Cc1ccc(N2CCC(CC#N)(n3cc(C(N)=O)c(Nc4ccc(F)cc4)n3)CC2)cc1F [Example 3-34, 1-[4-(cyanomethyl)-1-(3-fluoro-4-methylphenyl)piperidin-4-yl]-3-[(4-fluorophenyl)amino]-1H-pyrazole-4-carboxamide] | 5 nM | 215 nM |

Next, values leading:

| IC50 (JAK1) | IC50 (JAK2) | SMILES |
| --- | --- | --- |
| 2 nM | 49 nM | Cc1cc(N2CCC(CC#N)(n3cc(C(N)=O)c(Nc4ccc(F)cc4)n3)CC2)cnc1C [Example 3-14, 1-[4-(cyanomethyl)-1-(5,6-dimethylpyridin-3-yl)piperidin-4-yl]-3-[(4-fluorophenyl)amino]-1H-pyrazole-4-carboxamide] |
| 45 nM | 861 nM | CCOc1cccc(N2CCC(CC#N)(n3cc(C(N)=O)c(Nc4ccc(F)cc4)n3)CC2)n1 [Example 3-16, 1-[4-(cyanomethyl)-1-(6-ethoxypyridin-2-yl)piperidin-4-yl]-3-[(4-fluorophenyl)amino]-1H-pyrazole-4-carboxamide] |
| 33 nM | 559 nM | COc1cccnc1N1CCC(CC#N)(n2cc(C(N)=O)c(Nc3ccc(F)cc3)n2)CC1 [Example 3-23, 1-[4-(cyanomethyl)-1-(3-methoxypyridin-2-yl)piperidin-4-yl]-3-[(4-fluorophenyl)amino]-1H-pyrazole-4-carboxamide] |
| 9 nM | 209 nM | Cc1ncccc1N1CCC(CC#N)(n2cc(C(N)=O)c(Nc3ccc(F)cc3)n2)CC1 [Example 3-29, 1-[4-(cyanomethyl)-1-(2-methylpyridin-3-yl)piperidin-4-yl]-3-[(4-fluorophenyl)amino]-1H-pyrazole-4-carboxamide] |
| 0.3 nM | 6 nM | N#CCC1(n2cc(C(N)=O)c(Nc3ccc(F)cc3)n2)CCN(c2cccnc2)CC1 [Example 3-30, 1-[4-(cyanomethyl)-1-pyridin-3-ylpiperidin-4-yl]-3-[(4-fluorophenyl)amino]-1H-pyrazole-4-carboxamide] |
| 1 nM | 44 nM | Cc1ccnc(N2CCC(CC#N)(n3cc(C(N)=O)c(Nc4ccc(F)cc4)n3)CC2)c1 [Example 3-31, 1-[4-(cyanomethyl)-1-(4-methylpyridin-2-yl)piperidin-4-yl]-3-[(4-fluorophenyl)amino]-1H-pyrazole-4-carboxamide] |
| 204 nM | > 1500 nM | Cc1ccc(F)cc1N1CCC(CC#N)(n2cc(C(N)=O)c(Nc3ccc(F)cc3)n2)CC1 [Example 3-32, 1-[4-(cyanomethyl)-1-(5-fluoro-2-methylphenyl)piperidin-4-yl]-3-[(4-fluorophenyl)amino]-1H-pyrazole-4-carboxamide] |
| 7 nM | 102 nM | Cc1ccncc1N1CCC(CC#N)(n2cc(C(N)=O)c(Nc3ccc(F)cc3)n2)CC1 [Example 3-33, 1-[4-(cyanomethyl)-1-(4-methylpyridin-3-yl)piperidin-4-yl]-3-[(4-fluorophenyl)amino]-1H-pyrazole-4-carboxamide] |
